Reference: paper PMC8183095, “Uncovering the chemistry of C–C bond formation in C-nucleoside biosynthesis: crystal structure of a C-glycoside synthase/PRPP complex” (Chemical Communications (Cambridge, England), 2020)
Blank lines part the entries; values can stand above or below the compound they belong to.

Legend:
ForT [1] = molecular target: T1, ForT (Streptomyces kaniharaensis, UniProt A0A5S9CYM0); test: biochemical; parameters: gene cof6
T1 sequence (A0A5S9CYM0 1-341): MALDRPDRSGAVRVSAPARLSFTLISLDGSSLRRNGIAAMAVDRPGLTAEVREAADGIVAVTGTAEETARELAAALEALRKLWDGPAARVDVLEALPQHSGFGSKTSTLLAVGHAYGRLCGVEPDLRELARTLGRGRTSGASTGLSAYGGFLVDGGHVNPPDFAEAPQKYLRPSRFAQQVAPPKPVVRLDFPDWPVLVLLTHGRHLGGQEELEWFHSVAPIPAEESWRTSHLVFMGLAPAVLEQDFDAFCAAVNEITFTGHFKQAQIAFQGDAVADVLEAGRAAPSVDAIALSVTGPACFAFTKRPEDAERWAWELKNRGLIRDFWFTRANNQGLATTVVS

ForT [2] = molecular target: T2, ForT (Streptomyces kaniharaensis, UniProt A0A5S9CYM0, G134P); test: biochemical
T2 construct: gene cof6
T2 sequence (A0A5S9CYM0 entry or part of it G134P): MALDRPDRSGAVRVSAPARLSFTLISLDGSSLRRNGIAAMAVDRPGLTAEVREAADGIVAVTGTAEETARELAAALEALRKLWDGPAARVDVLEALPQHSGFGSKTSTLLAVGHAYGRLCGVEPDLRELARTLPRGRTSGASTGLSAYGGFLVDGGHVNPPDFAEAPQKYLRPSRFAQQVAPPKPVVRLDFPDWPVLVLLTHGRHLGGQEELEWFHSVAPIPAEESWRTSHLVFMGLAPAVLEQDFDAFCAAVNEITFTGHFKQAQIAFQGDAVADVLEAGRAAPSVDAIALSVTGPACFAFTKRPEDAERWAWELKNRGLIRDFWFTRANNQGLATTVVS

ForT [3] = molecular target: T1, ForT; test: LCMS product detection; membrane-inlet mass spectrometry of CO2 production; type: biochemical; parameters: gene cof6; recombinant wild type, expressed in and purified from Escherichia coli; residues 11-171, 180-205, 209-341 (C-terminus) seen in the crystal; dimer in solution; conditions: co-substrate PRPP; Mg2+ apparently needed
[4] = molecular target: ForT (wild type), C-glycoside synthase from Streptomyces kaniharaensis (Streptomyces kaniharaensis); test: SEC-MALS; gel filtration and multi-angle light scattering of ForT in solution

Kd (ForT [1]): 4 µM | Kd (ForT [2]): > 200 µM
Compound: O=P(O)(O)OC[C@H]1O[C@H](OP(=O)(O)OP(=O)(O)O)[C@H](O)[C@@H]1O [compound 4, PRPP]

Compound: Nc1c(C(=O)O)n[nH]c1C(=O)O [compound 5, 4-amino-1H-pyrazole-3,5-dicarboxylate]
LCMS product detection; membrane-inlet mass spectrometry of CO2 production (ForT [3]): LCMS confirmed formation of the expected product when the enzyme was incubated with PRPP

stoichiometry N [4]: 2
Compound: ForT (wild type), C-glycoside synthase from Streptomyces kaniharaensis (enzyme)
